How the values were obtained:
PC-3 cells = experiment: Apoptosis analysis (DNA fragmentation ELISA, PARP cleavage); type: cell-based, human; conditions: 1% FBS-containing medium
Method: Apoptosis analysis Two methods were used to assess drug-induced apoptotic cell death: detection of DNA fragmentation by the Cell Death Detection ELISA kit (Roche Diagnostics. Mannheim, Germany) and Western blot analysis of poly-(ADP-ribose)polymerase (PARP) cleavage. […] In brief, 4×10^5 PC-3 cells were cultured in a T-25 flask for 24 h before treatment. Cells were treated with the DMSO vehicle or the test agent at the indicated concentrations for 6-24 h, collected, and cell lysates equivalent to 2×10^3 PC-3 cells were used in the ELISA. For the PARP cleavage assay, drug-treated cells were collected 4-8 h post-treatment, washed with ice-cold PBS, and resuspended in lysis buffer containing 20 mM Tris-HCl, pH 8, 137 mM NaCl, 1 mM CaCl2, 10% glycerol, 1% Nonidet P-40, 0.5% deoxycholate, 0.1% SDS, 100 μM 4-(2-aminoethyl)benzenesulfonyl fluoride, leupeptin at 10 μg/mL, and aprotinin at 10 μg/mL. Soluble cell lysates were collected after centrifugation at 10,000 g for 5 min. Equivalent amounts of proteins (60-100 μg) from each lysate were resolved in 8% SDS-polyacrylamide gels. Bands were transferred to nitrocellulose membranes, and analyzed by immunoblotting with anti-PARP antibody.

HCT-15 = experiment: NCI DTP cell line screen (SRB), Colon Cancer; type: cell-based
786-0 = experiment: NCI DTP cell line screen (SRB), Renal Cancer; type: cell-based
Method: (§1) Screening of compounds 70 and 71 against several cancer cell lines The human tumor cell lines of the cancer screening panel are grown in RPMI 1640 medium containing 5% fetal bovine serum and 2 mM L-glutamine. For a typical screening experiment, cells are inoculated into 96 well microtiter plates in 100 μL at plating densities ranging from 5,000 to 40,000 cells/well depending on the doubling time of individual cell lines. After cell inoculation, the microtiter plates are incubated at 37° C., 5% CO2, 95% air and 100% relative humidity for 24 h prior to addition of experimental drugs.
(§2) After 24 h, two plates of each cell line are fixed in situ with TCA, to represent a measurement of the cell population for each cell line at the time of drug addition (Tz). Experimental drugs are solubilized in dimethyl sulfoxide at 400-fold the desired final maximum test concentration and stored frozen prior to use. At the time of drug addition, an aliquot of frozen concentrate is thawed and diluted to twice the desired final maximum test concentration with complete medium containing 50 μg/ml gentamicin. Additional four, 10-fold or ½ log serial dilutions are made to provide a total of five drug concentrations plus control. Aliquots of 100 μl of these different drug dilutions are added to the appropriate microtiter wells already containing 100 μl of medium, resulting in the required final drug concentrations.
(§3) Following drug addition, the plates are incubated for an additional 48 h at 37° C., 5% CO2, 95% air, and 100% relative humidity. For adherent cells, the assay is terminated by the addition of cold TCA. Cells are fixed in situ by the gentle addition of 50 μl of cold 50% (w/v) TCA (final concentration, 10% TCA) and incubated for 60 minutes at 4° C. The supernatant is discarded, and the plates are washed five times with tap water and air dried. Sulforhodamine B (SRB) solution (100 μl) at 0.4% (w/v) in 1% acetic acid is added to each well, and plates are incubated for 10 minutes at room temperature. After staining, unbound dye is removed by washing five times with 1% acetic acid and the plates are air dried. Bound stain is subsequently solubilized with 10 mM trizma base, and the absorbance is read on an automated plate reader at a wavelength of 515 nm. For suspension cells, the methodology is the same except that the assay is terminated by fixing settled cells at the bottom of the wells by gently adding 50 μl of 80% TCA (final concentration, 16% TCA). Using the seven absorbance measurements [time zero, (Tz), control growth, (C), and test growth in the presence of drug at the five concentration levels (Ti)], the percentage growth is calculated at each of the drug concentrations levels. Percentage growth inhibition is calculated as: [(Ti−Tz)/(C−Tz)]×100 for concentrations for which Ti>/=Tz [(Ti−Tz)/Tz]×100 for concentrations for which Ti<Tz
(§4) Three dose response parameters are calculated for each experimental agent. […] The drug concentration resulting in total growth inhibition (TGI) is calculated from Ti=Tz. […] Values are calculated for each of these three parameters if the level of activity is reached; however, if the effect is not reached or is exceeded, the value for that parameter is expressed as greater or less than the maximum or minimum concentration tested.
(§5) The methods described were used to test compounds 70 and 71 on a panel of sixty cell lines under a screening service provided by the Developmental Therapeutics Program at the National Institutes of Health. Shown in FIG. 1C are 1, RPMI-8226 leukemia cells; 2; NCI-H322M non-small cell lung cancer cells; 3, HT29 colon cancer cells; 4, U251 CNS cancer cells; 5, SK-MEL-28 melanoma cancer cells; 6, SK-OV-3 ovarian cancer cells; 7, RXF 393 renal cancer cells; 8, PC-3 prostate cancer cells; 9, MDA-MB-231 breast cancer cells.

A498 = experiment: NCI DTP cell line screen (SRB), Renal Cancer; type: cell-based
Method: as §1, §2, §3, §4, §5

SN12C = experiment: NCI DTP cell line screen (SRB), Renal Cancer; type: cell-based
Method: as §1, §2, §3, §4, §5

TK-10 = experiment: NCI DTP cell line screen (SRB), Renal Cancer; type: cell-based
Method: as §1, §2, §3, §4, §5

[1] = read-out: LC50 (the source's name)

## NCC(=O)Nc1ccc(-n2nc(C(F)(F)F)cc2-c2ccc3c(ccc4ccccc43)c2)cc1 [Compound 70, 2-Amino-N-{4-[5-(2-phenanthrenyl)-3-(trifluoromethyl)-1H-pyrazol-1-yl]-phenyl}-acetamide]
PC-3 cells
  apoptotic death in PC-3 cells (DNA fragmentation and PARP cleavage): induced apoptotic death in PC-3 cells in 1% FBS-containing medium in a dose-dependent manner
HCT-15
  TGI: 3.19E−06
HCT-15; Log10 Concentration −5.0
  Percent Growth: −47%
HCT-15; Log10 Concentration −6.0
  Percent Growth: 47%
HCT-15; Log10 Concentration −7.0
  Percent Growth: 54%
HCT-15; Log10 Concentration −8.0
  Percent Growth: 81%
786-0
  TGI: 2.85E−06
786-0; Log10 Concentration −4.0
  Percent Growth: −54%
786-0; Log10 Concentration −5.0
  Percent Growth: −72%
786-0; Log10 Concentration −6.0
  Percent Growth: 60%
786-0; Log10 Concentration −7.0
  Percent Growth: 95%
786-0; Log10 Concentration −8.0
  Percent Growth: 104%
A498
  TGI: 5.75E−06
A498; Log10 Concentration −4.0
  Percent Growth: −54%
A498; Log10 Concentration −5.0
  Percent Growth: −30%
A498; Log10 Concentration −6.0
  Percent Growth: 95%
A498; Log10 Concentration −7.0
  Percent Growth: 126%
A498; Log10 Concentration −8.0
  Percent Growth: 98%
SN12C
  TGI: 3.51E−06
SN12C; Log10 Concentration −4.0
  Percent Growth: −47%
SN12C; Log10 Concentration −5.0
  Percent Growth: −65%
SN12C; Log10 Concentration −6.0
  Percent Growth: 78%
SN12C; Log10 Concentration −7.0
  Percent Growth: 94%
SN12C; Log10 Concentration −8.0
  Percent Growth: 96%
TK-10
  TGI: 3.10E−06
TK-10; Log10 Concentration −4.0
  Percent Growth: −70%
TK-10; Log10 Concentration −5.0
  Percent Growth: −80%
TK-10; Log10 Concentration −6.0
  Percent Growth: 77%
TK-10; Log10 Concentration −7.0
  Percent Growth: 100%
TK-10; Log10 Concentration −8.0
  Percent Growth: 102%

## N=C(N)Nc1ccc(-n2nc(C(F)(F)F)cc2-c2ccc3c(ccc4ccccc43)c2)cc1 [Compound 71, 4-[5-(2-Phenanthrenyl)-3-(trifluoromethyl)-1H-pyrazol-1-yl]-phenyl-guanidine]
PC-3 cells
  apoptotic death in PC-3 cells (DNA fragmentation and PARP cleavage): induced apoptotic death in PC-3 cells in 1% FBS-containing medium in a dose-dependent manner
HCT-15
  GI50: 1.54 µM
  TGI: 2.87E−06
HCT-15; Log10 Concentration −4.0
  Mean Optical Densities: 0.082
  Percent Growth: −71%
HCT-15; Log10 Concentration −5.0
  Mean Optical Densities: −0.003
  Percent Growth: −100%
HCT-15; Log10 Concentration −6.0
  Mean Optical Densities: 0.797
  Percent Growth: 84%
HCT-15; Log10 Concentration −7.0
  Mean Optical Densities: 0.779
  Percent Growth: 81%
HCT-15; Log10 Concentration −8.0
  Mean Optical Densities: 0.669
  Percent Growth: 64%
HCT-15; [1]
  CC50: 5.36 µM
786-0
  GI50: 1.49 µM
  TGI: 2.91E−06
786-0; Log10 Concentration −4.0
  Mean Optical Densities: 0.458
  Percent Growth: −30%
786-0; Log10 Concentration −5.0
  Mean Optical Densities: 0.046
  Percent Growth: −93%
786-0; Log10 Concentration −6.0
  Mean Optical Densities: 1.663
  Percent Growth: 80%
786-0; Log10 Concentration −7.0
  Mean Optical Densities: 1.868
  Percent Growth: 96%
786-0; Log10 Concentration −8.0
  Mean Optical Densities: 1.862
  Percent Growth: 96%
A498
  GI50: 16.5 µM
  TGI: 4.35E−05
A498; Log10 Concentration −4.0
  Mean Optical Densities: 0.540
  Percent Growth: −43%
A498; Log10 Concentration −5.0
  Mean Optical Densities: 1.903
  Percent Growth: 76%
A498; Log10 Concentration −6.0
  Mean Optical Densities: 1.869
  Percent Growth: 73%
A498; Log10 Concentration −7.0
  Mean Optical Densities: 2.087
  Percent Growth: 91%
A498; Log10 Concentration −8.0
  Mean Optical Densities: 2.413
  Percent Growth: 116%
A498; [1]
  CC50: > 100 µM
SN12C
  GI50: 1.57 µM
  TGI: 2.91E−06
SN12C; Log10 Concentration −4.0
  Mean Optical Densities: 0.224
  Percent Growth: −62%
SN12C; Log10 Concentration −5.0
  Mean Optical Densities: −0.014
  Percent Growth: −100%
SN12C; Log10 Concentration −6.0
  Mean Optical Densities: 1.045
  Percent Growth: 87%
SN12C; Log10 Concentration −7.0
  Mean Optical Densities: 0.998
  Percent Growth: 78%
SN12C; Log10 Concentration −8.0
  Mean Optical Densities: 1.050
  Percent Growth: 88%
TK-10
  GI50: 1.32 µM
  TGI: 2.59E−06
TK-10; Log10 Concentration −4.0
  Mean Optical Densities: 0.245
  Percent Growth: −64%
TK-10; Log10 Concentration −5.0
  Mean Optical Densities: −0.021
  Percent Growth: −100%
TK-10; Log10 Concentration −6.0
  Mean Optical Densities: 0.998
  Percent Growth: 71%
TK-10; Log10 Concentration −7.0
  Mean Optical Densities: 1.087
  Percent Growth: 90%
TK-10; Log10 Concentration −8.0
  Mean Optical Densities: 1.032
  Percent Growth: 78%
TK-10; [1]
  CC50: 5.09 µM

Source: US8541460B2, “PDK-1/Akt signaling inhibitors” (The Ohio State University, priority 2003, dated 2013)
